Several values for one entry are separate records, joined by “and”; a condition that tells them apart may be missing. Identical values can stand only once. Blank lines part the entries; values can stand above or below the compound they belong to.
Assays:
[1] = tested on: bovine gamma globulin (BGG); test: Normalized viscosity of BGG with caffeine and a secondary excipient (Example 40); format: physicochemical; conditions: BGG about 280 mg/mL, 20 mM histidine pH 6, 25° C.
BGG = conditions: Table 15; versus 130.6 cP with no excipient
bevacizumab (AVASTIN®) = test: Viscosity of AVASTIN with caffeine, microVisc (Example 39); format: physicochemical; conditions: for % Viscosity Reduction from Excipient: 10 mg/mL caffeine vs no excipient; for Viscosity with 10 mg/mL added caffeine excipient: 10 mg/mL caffeine, 25 mM histidine HCl
Experimental: Viscosity was measured by RheoSense microVisc and concentration was determined by absorbance at 280 nm (extinction coefficient, 1.605 mL/mg). […].

[2] = target: T1, PEGylated BSA with 1 PEG chain per BSA molecule (Bos taurus, UniProt P02769); test: Viscosity of PEGylated BSA with 1 PEG chain per BSA molecule (Example 16); format: physicochemical; conditions: Table 8; versus 228.6 cP with no excipient
T1 construct: purchased Aldrich A7906
T1 sequence (P02769 25-607): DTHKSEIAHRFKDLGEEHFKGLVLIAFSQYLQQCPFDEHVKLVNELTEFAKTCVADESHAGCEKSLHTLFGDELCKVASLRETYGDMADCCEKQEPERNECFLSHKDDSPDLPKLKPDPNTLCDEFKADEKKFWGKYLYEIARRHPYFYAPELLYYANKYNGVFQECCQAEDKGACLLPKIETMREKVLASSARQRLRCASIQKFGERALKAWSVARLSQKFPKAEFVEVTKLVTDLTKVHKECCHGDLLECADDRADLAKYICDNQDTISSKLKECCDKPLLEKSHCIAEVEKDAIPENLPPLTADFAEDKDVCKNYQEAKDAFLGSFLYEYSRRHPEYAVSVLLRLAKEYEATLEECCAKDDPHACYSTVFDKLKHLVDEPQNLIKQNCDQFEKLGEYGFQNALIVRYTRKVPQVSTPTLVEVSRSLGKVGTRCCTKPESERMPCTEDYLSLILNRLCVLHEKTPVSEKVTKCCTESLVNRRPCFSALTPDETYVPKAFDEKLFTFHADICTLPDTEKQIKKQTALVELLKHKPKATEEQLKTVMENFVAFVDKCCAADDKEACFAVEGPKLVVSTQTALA
Experimental: To a beaker was added 200 mL of a phosphate buffered saline (Aldrich Cat. #P4417) and 4 g of BSA (Aldrich Cat. #A7906) and mixed with a magnetic bar. Next 400 mg of methoxy polyethylene glycol maleimide, MW=5,000, (Aldrich Cat. #63187) was added. The reaction mixture was allowed to react overnight at room temperature. The following day, 20 drops of HCl 0.1 M were added to stop the reaction. […] The reaction mixture was placed in an Amicon centrifuge tube with a molecular weight cutoff (MWCO) of 30 kDa and concentrated to a few milliliters. Next the sample was diluted 20 times with a histidine buffer, 50 mM at a pH of approximately 6, followed by concentrating until a high viscosity fluid was obtained.
The viscometer measurements were completed at ambient temperature.

[3] = target: PEGylated lysozyme with multiple PEG chains per lysozyme molecule (Gallus gallus, UniProt P00698); conditions: Table 10
Sequence of PEGylated lysozyme with multiple PEG chains per lysozyme molecule (P00698 19-147): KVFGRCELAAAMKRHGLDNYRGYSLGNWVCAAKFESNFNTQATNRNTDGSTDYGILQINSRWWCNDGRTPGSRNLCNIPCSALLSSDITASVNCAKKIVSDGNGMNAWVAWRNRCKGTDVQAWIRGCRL

ustekinumab [4] = test: Thermal stability at 65 deg C., increase in percent monomer by SE-HPLC (Example 55); format: physicochemical; conditions: excipient 5 mg/mL, ustekinumab 1 mg/mL, 20 mM Histidine pH 6.0, 65 deg C., 120 min
From the text: Therapeutic proteins are frequently subjected to fluctuations in temperatures, which may lead to changes in their tertiary and secondary structural elements. This leads to aggregation of the protein and a decrease in the active native species.

omalizumab [5] = test: Freeze/thaw stress (6 cycles), monomer by SE-HPLC (Example 57); format: physicochemical; conditions: excipient 100 mM, omalizumab 2 mg/mL, 20 mM Histidine pH 6.0, freeze (−80° C.)/thaw
Experimental: Therapeutic proteins are frequently kept at low temperatures to improve their kinetic stability and minimize structural perturbations that could lead to the aggregation of the protein and a decrease in the active native species. In certain cases, this might be done by freezing the formulation until use. However, the low temperatures, concentration gradients, and ice formation during repeated freezing and thawing can stress the protein. […] The formulations were then aliquoted into 0.5 mL cryovials and frozen at −80° C. for 120 min. The samples were then thawed using a water bath kept at room temperature.

ustekinumab [6] = test: Accelerated aging at 40° C. for 4 weeks, monomer by SE-HPLC (Example 58); format: physicochemical; conditions: excipient 100 mM, ustekinumab 2 mg/mL, 20 mM Histidine pH 6.0, 40° C. for 4 weeks
Experimental: 1 mL of each sample was aliquoted into 2 mL glass vials (West Pharmaceutical services, PA) and incubated at 40° C. for 4 weeks. The aliquots were withdrawn after 0, 1, 2, 3, and 4 weeks.

nivolumab = test: Thermal stability of nivolumab at 40 C for 4 weeks, SE-HPLC (Example 69); conditions: Excipient added at 400 mM; nivolumab 10 mg/ml, 5 mM phosphate pH 7.5, 40 C for 4 weeks
pembrolizumab = test: Thermal stability of pembrolizumab at 40 C for 4 weeks, SE-HPLC (Example 70); conditions: Excipient added at 400 mM; pembrolizumab 10 mg/ml, 5 mM phosphate pH 7.5, 40 C for 4 weeks
infliximab = test: Thermal stability at 50° C. with caffeine and excipients, SE-HPLC (Example 63); format: physicochemical; conditions: excipient 0.5 M, caffeine 50 mM, infliximab 10 mg/mL, 5 mM phosphate pH 7.5, 50° C., 180 min
Experimental: Therapeutic proteins stress leads to aggregation of the protein and a decrease in the active native species. […] The aliquots were withdrawn at 0 min, 90 min and 180 min. […] Diode array detector.

omalizumab [7] = test: DLS viscosity of concentrated omalizumab with nicotinamide mononucleotide and itaconic acid (Example 52); format: physicochemical; conditions: 20 mM His HCl pH 6, excipient stock 1 M or solubility limit
[8] = tested on: bovine gamma globulin (BGG); test: Viscosity of 280 mg/mL BGG formulations with excipient compounds, cone and plate viscometer (Examples 1, 2, 4-6); format: physicochemical

Compound: N=C(N)NCCC[C@H](N)C(=O)O [Arginine, reference compound]
- Normalized Viscosity ([1]; Excipient A caffeine 15 mg/mL + Excipient B 20 mg/mL): 0.63
- Viscosity Reduction (%) (BGG): 41%

Compound: Cn1c(=O)c2c(ncn2C)n(C)c1=O [Caffeine]
- % Viscosity Reduction from Excipient (bevacizumab (AVASTIN®); AVASTIN 190 mg/mL): 36%
- Viscosity with 10 mg/mL added caffeine excipient (bevacizumab (AVASTIN®); AVASTIN 190 mg/mL): 13 cP
- % Viscosity Reduction from Excipient (bevacizumab (AVASTIN®); AVASTIN 213 mg/mL): 73%
- Viscosity with 10 mg/mL added caffeine excipient (bevacizumab (AVASTIN®); AVASTIN 213 mg/mL): 22 cP
- % Viscosity Reduction from Excipient (bevacizumab (AVASTIN®); AVASTIN 266 mg/mL): 62%
- Viscosity with 10 mg/mL added caffeine excipient (bevacizumab (AVASTIN®); AVASTIN 266 mg/mL): 113 cP
- Normalized Viscosity ([1]; Excipient A caffeine 15 mg/mL, no Excipient B): 0.77
- Viscosity Reduction (%) (BGG): 33%

Compound: CC(=O)[O-].[K+] [K acetate, potassium acetate]
- Viscosity Reduction [2]: 60%
- Viscosity (cP) ([3]; PEGylated lysozyme, 500 s-1, ambient temperature, excipient 20 mg/mL): 22.6 cP
- Viscosity Reduction ([3]; versus 24.6 cP with no excipient): 8%

Compound: OC[C@H]1O[C@@](CO)(OC[C@@]2(O[C@H]3O[C@H](CO)[C@@H](O)[C@H](O)[C@H]3O)O[C@H](CO)[C@@H](O)[C@@H]2O)[C@@H](O)[C@@H]1O [Kestose]
- % increase in monomer content vs. control (ustekinumab [4]): 5.9%
- % increase in monomer content vs. control (omalizumab [5]): 71.18%
- % increase in monomer content vs. control (ustekinumab [6]): 8.4%
- % Monomer remaining (nivolumab): 92.4%
- % Monomer remaining (pembrolizumab): 82.6%

- % change compared to control (infliximab): 20.8%
- % Monomer remaining (nivolumab): 89.8%
- % Monomer remaining (pembrolizumab): 82.1%
Compound: O=C(O)[C@H](O)[C@@H](O)[C@H](O[C@@H]1O[C@H](CO)[C@H](O)[C@H](O)[C@H]1O)[C@H](O)CO [Lactobionic acid]

- DLS Viscosity, Replicate 1 (omalizumab [7]): 33.6 cP
- DLS Viscosity, Replicate 2 (omalizumab [7]): 22.2 cP
Compound: NC(=O)c1ccc[n+]([C@@H]2O[C@H](COP(=O)([O-])O)[C@@H](O)[C@H]2O)c1 [Nicotinamide mononucleotide]

- % change compared to control (infliximab): 13.1%
- % Monomer remaining (nivolumab): 85.6%
- % Monomer remaining (pembrolizumab): 79.2%
Compound: CO[C@H]1[C@H](O)[C@@H](O)[C@@H](O)[C@H](O)[C@@H]1O [Pinitol]

Compound: O=C([O-])c1ccccc1O.[Na+] [Sodium salicylate]
- Viscosity Reduction [8]: 28% and 34%
- Viscosity (cP) ([8]; pH 6): 57 cP and 52 cP

- Viscosity Reduction [2]: 34%
Compound: Alpha-Cyclodextrin sulfated Na salt

Source: patent US20250186600A1, “EXCIPIENT COMPOUNDS FOR PROTEIN FORMULATIONS” (Comera Life Sciences, Inc., priority 2020, published 2025)
